What was measured:
[1] = test system: LPS-stimulated macrophages; details: published results, El-Mahmoudy 2002; cited from earlier work
3T3-L1 adipocytes = test: Lipolysis (glycerol assay) in 3T3-L1 adipocytes; assay type: cell-based, murine; details: forskolin 82 μg/mL, test materials 5 μg/mL (FIG. 9)
Protocol: Culture and treatment of 3T3-L1 adipocytes and C2C12 myocytes was as described in Example 5. Concentrations of the forskolin positive control and test materials are listed in FIG. 9 for adipocytes and FIG. 10 for myocytes. Free fatty acid release from 3T3-L1 adipocytes or C2C12 myocytes was quantified by measuring glycerol secretion into the medium. Glycerol was measured spectrophotometrically using the Free Glycerol Determination Kit ([…], Sigma) and an EL 312e Microplate BIO-KINETICS spectrophotometer (BioTek, Winooski, Vt.). Glycerol release from adipocytes and myocytes was expressed, respectively, as the percent increase in free fatty acid secretion (FIG. 9) and relative glycerol content (glycerol index FIG. 10) ±95% confidence intervals of eight observations for one of three representative experiments.

[2] = test system: adiponectin secretion in 3T3-L1 adipocytes; test: Adiponectin secretion in t10-CLA-stimulated 3T3-L1 adipocytes; assay type: cell-based, murine; details: t10-CLA 50 μM control = 100; μg TQ equivalents/mL: Thymoquinone 5.0, NS8 0.11, NS9 0.99, NS10 0.012, NSSpent#2 0.0005; NSSpent#1 5 μg/mL; listed as TQ
Protocol: The 3T3-L1 murine fibroblast model as used in Example 4 was used in this experiments. Test materials were added four hours prior to the addition of t10-CLA at a concentration of 50 μM. Following overnight incubation, the supernatant media were sampled for determination of IL-6 and adiponectin. The adiponectin secreted into the medium was quantified using the Mouse Adiponectin Quantikine® Immunoassay kit with no modifications (R&D Systems, Minneapolis, Minn.). […] Test materials and were assayed in duplicate, while solvent controls were replicated eight times. IL-6 and adiponectin secretion were represented relative to the IL-6 and adiponectin secretion of the t10-CLA only controls as the IL-6 and adiponectin index and differences among the means were analyzed by the student's t-test assuming a five percent probability of a type I error (Excel; Microsoft, Redmond, Wash.).

Caco-2 monolayers = test: t10-CLA-induced loss of TEER in Caco-2 monolayers; assay type: cell-based, human; details: t10-CLA 50 μM control = 100; μg TQ equivalents/mL: Thymoquinone 5.0, NS8 0.11, NS9 0.99, NS10 0.012, NSSpent#2 0.0005; NSSpent#1 5 μg/mL; listed as TQ
Source text: The protocol for growing and differentiation the human Caco-2 colon andenocarcinoma cells was a modification of Protocol 3 as described by Yamashita et al. [[…]., and Furuyama, Y. 2002) New and better protocols for a short-term Caco-2 cell culture system, J Pharm Sci 91, 669-679]. Caco-2 Human Colon Adenocarcinoma cells were obtained from ATCC (Rockville, Md.; catalog #HTB-37) and maintained in a growth media: DMEM (Dulbecco's Modified Eagles Medium 1×) containing L-glutamine, glucose; Cellgro catalog #35-010CV with the following additions: (1) Penicillin (5,000 IU/mL)/Streptomycin (5,000 μg/mL) Cellgro catalog #30-001C1, (2) 10% FBS-Fetal Bovine Serum, Characterized; Hyclone catalog #SH30071.3, and (3) 1% NEAA-Non Essential Amino Acids; Cellgro catalog #25-025-CI; cells were cultured at 37 C in a humidified air-5% CO2 atmosphere in T175 flasks. BIOCOAT^R HTS Caco-2 Assay System kits (Becton Dickinson, N.J.; catalog #354801) consisting of 24-well fibrillar collagen coated inserts and feeder trays were used in all experiments and plated as follows. Media was removed from the T175 flasks and cells were washed with 10 mLs PBS (phosphate buffered saline 1× without Ca^++, without Mg^++; Cellgro #25-053-CI). […]

[3] = DPPH free radical scavenging (antioxidant) assay; details: computed on basis of TQ content; inactive samples tested up to 1000 μg/mL
Protocol: Antioxidant activity was determined utilizing 2,2-diphenyl-1-picrylhydrazyl (DPPH), which is a stable radical. The odd electron in the DPPH free radical gives a strong absorption maximum at 550 nm and is purple in color. The color turns from purple to yellow as the molar absorption of the DPPH radical at 550 nm is reduced when the odd electron of DPPH radical becomes paired with hydrogen from a free radical scavenging antioxidant to form the reduced DPPH-H. The test samples were dissolved in methanol containing 1% dimethyl sulfoxide and added to microtiter wells in 100 μL aliquots to 100 μL of a 100 μM DPPH solution in methanol. Readings were taken at 10, 30 and 60 minutes following the addition of the test material. Percent inhibition of the DPPH radical by the test material was computed relative to the inhibition of the DPPH radical by the vitamin E analog trolox and tabulated as μmol trolox/g test material.

In the case of CC1=CC(=O)C(C(C)C)=CC1=O [Thymoquinone, thymoquinone], the “IC50 for NO inhibition in LPS-stimulated macrophages” value [1] is given as 1.4 to 2.8 µg/mL, the “free fatty acid release in adipocytes” value (3T3-L1 adipocytes) is given as “induced free fatty acid release” and the “Adiponectin Index” value [2] is given as “attenuated t10-CLA-stimulated decrease of adiponectin secretion”. For the same molecule, the “Relative Loss of TEER” value (Caco-2 monolayers) was “inhibited loss of TEER” and the “DPPH Reducing Activity” value [3] was 45.2 μmol Trolox/g TQ.

From patent US9180155B2, “Compositions from Nigella sativa” (Bio Nexus, Ltd, priority 2013, dated 2015)
